In PubChem BioAssay (NCI) one finds TGI and GI50 data, which are given here for 17 compounds.

Assay in all cases: growth of human tumour cells (NCI), 48 h
Test [1] relates to A498 renal.
In test [2] the test system is COLO 205 colon.
Test [3] has as its system M14 melanoma.
Test [4] concerns NCI-H226 lung.
Test [5] deals with OVCAR-4 ovarian.
The subject of test [6] is OVCAR-8 ovarian.
Test [7] has as its system RPMI-8226 leukemia.
For test [8], the system named is SNB-19 CNS.
For test [9], the system named is BT-549 breast.
Test [10] relates to MDA-MB-231 breast.

SMILES strings stand for the structures.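 Results reflect a 48-hour exposure of cells in 96-well plates to compound at five concentrations. GI50 is the concentration that inhibits growth by half. TGI: concentration producing complete growth inhibition.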 A value given as a limit tells only on which side of the number the result lay.

Regarding `COc1ccc(-c2c(N)[n+]([O-])c3ccccc3[n+]2[O-])cc1OC`, the TGI in [1], in [2], in test [3], in test [4], in test [5] and in [6] was above 100 µM each time. Also, the TGI in [7] and in test [8] was above 100 µM each time.

As for `CC1C(=O)O[C@H]2C1CC[C@@]1(C)[C@H](O)CC[C@@]13C[C@]2(O)OO3` (some centres not stated), the TGI in [1], in test [2], in test [3], in test [4], in [5] and in [6] was above 100 µM throughout. For the same compound, the TGI in test [7] and in test [8] was above 100 µM each time.

With `CCC(C(=O)c1ccccc1)C(CCCC(=O)Nc1c(C)cccc1C)N=O` (configuration not stated), the TGI in test [1], in [2], in test [3], in test [4], in test [5] and in test [6] was above 100 µM throughout. For the same compound, the TGI in test [7] and in [8] was above 100 µM in each case.

Consider `O=C(NCc1ccncc1)C1COc2cc(-c3cc(=O)c4ccccc4o3)ccc2O1` (configuration not stated), for which the TGI in test [3], in test [5] and in test [6] was above 100 µM each time.

In the case of `O=[N+]([O-])c1ccc(Cl)cc1N/N=C/c1cccc2cccnc12`, the TGI in test [9], in [2], in test [3], in [10], in [5] and in [6] was above 100 µM throughout. In addition, the TGI in test [7] and in test [8] was above 100 µM in each case.

With `N#CC1C2CCC3(CC2CCN1C(=O)c1ccccc1)OCCO3` (configuration not stated), the TGI in [1], in test [2], in test [3], in [5], in test [6] and in test [7] was above 100 µM throughout. The same compound displayed a TGI in test [8] above 100 µM.

In the case of `C1=Nc2ccccc2C=Nc2ccccc2C=Nc2ccccc2C=Nc2ccccc21.[Cl-].[Pt+2]`, the GI50 in [1] is 23.2 µM; in test [2], 17.3 µM; in test [3], 30.2 µM; in [6] it was 17.5 µM; in test [7], 5.63 µM; in test [8], 42.8 µM. Besides, the TGI is 61.5 µM in test [1]; 51.4 µM in test [2]; above 100 µM in [3]; above 100 µM in [6]; 35.6 µM in test [7]; above 100 µM in test [8].

For the compound `O=c1c2cccnc2ncn1CCN1CCCC1`, the TGI in test [2], in [3], in test [4], in test [5], in test [6] and in [8] was above 100 µM in each case.

In the case of `Cc1ccc(Oc2ccc([N+](=O)[O-])cc2[N+](=O)[O-])c(C)c1`, the TGI was above 100 µM in test [1]; above 100 µM in test [3]; above 100 µM in [4]; above 100 µM in test [5]; above 100 µM in [6]; 97.7 µM in test [7].

Consider `CC1(O)CCC2(C#N)CCC1C2O` (configuration not stated), for which the TGI in [1], in [2], in test [3], in test [4], in test [5] and in test [6] was above 100 µM in each case. For the same compound, the TGI in test [7] was 54.6 µM; in [8], above 100 µM.

On to `Cc1cc2cn3c4cccnc4[nH]c(=O)c3c2cc1C`, for which the GI50 is 3.8 µM in test [1]; 12.2 µM in [9]; 1.65 µM in test [2]; 11.2 µM in [4]; 1.6 µM in test [5]; 1.89 µM in [7]. Besides, the TGI stood at 18.5 µM in test [1]; 29.4 µM in [9]; 3.18 µM in test [2]; 28 µM in [4]; 3.19 µM in [5]; 4.66 µM in test [7].

Regarding `N#C/C(=C\c1ccc(C(O)P(=O)(O)O)cc1)C(N)=O` (configuration not stated), the TGI in test [1], in test [2], in [3], in [4], in test [5] and in [6] was above 100 µM each time. For the same compound, the TGI in test [7] and in test [8] was above 100 µM throughout.

In the case of `CC/C=C/c1cc2cc[nH]c2c2c1C(C)C[C@@H]2C` (some centres not stated), the TGI in test [1] is 32.7 µM; in [2], 37.6 µM; in [3] it was 74.9 µM; in [4], 39 µM; in test [6] it was 66.2 µM; in test [7], 53.4 µM.

Take `CCOP(=O)(OCC)C1=NC=CC=CC1n1c(-c2ccccc2)nn(CC)c1=O` (configuration not stated): the TGI in [2], in test [4], in test [6], in test [7] and in test [8] was above 100 µM throughout.

With `COc1cc2c(c(OC)c1OC)-c1ccc(OC)c(=O)cc1[C@@H](N(C)C=O)CC2`, the TGI in test [1] was 0.665 µM; in test [2] it was 0.0251 µM; in [3] it was above 65.6 µM; in test [5], above 100 µM; in test [6], above 100 µM; in [7] it was above 100 µM. This compound also had a TGI in test [8] above 100 µM.

For the compound `Cc1c2c(cc3c(=O)ccn(CCN(C)C)c13)c(=O)ccn2CCN(C)C`, the TGI amounted to 38 µM in [1]; 24.7 µM in test [2]; 25 µM in test [3]; 31.7 µM in test [4]; 18.6 µM in test [5]; 21.8 µM in test [6]. The TGI in [8] was found to be 35.7 µM.

With `COc1cc(/C=C(\OC(C)=O)c2ccc3c(c2)OCO3)cc(OC)c1OC`, the TGI is 71.4 µM in [1]; 51.5 µM in [2]; 39.4 µM in test [3]; 30.7 µM in test [4]; 51.8 µM in [5]; 33.9 µM in test [6]. Also, the TGI was 76.6 µM in [7] and above 100 µM in test [8].
